We go through two compounds from article PMC2923755, “Thermolability of mutant MMACHC protein in the vitamin B12-responsive cblC disorder” (Molecular Genetics and Metabolism, 2010).

Substitutions are numbered along the chain they refer to. Several values for one entry are separate records, joined by “and”; a condition that tells them apart may be missing. Identical values can stand only once. Entries after “also recorded” stand apart in the source; their conditions may differ.

The target in data set [1] is T1, MMACHC-R161Q (Homo sapiens, UniProt Q9Y4U1, R161Q).
T1 construct: His-tag (N, cleaved yes); made in house; host or cells: E. coli BL21 DE3
T1 sequence (Q9Y4U1 1-282 R161Q): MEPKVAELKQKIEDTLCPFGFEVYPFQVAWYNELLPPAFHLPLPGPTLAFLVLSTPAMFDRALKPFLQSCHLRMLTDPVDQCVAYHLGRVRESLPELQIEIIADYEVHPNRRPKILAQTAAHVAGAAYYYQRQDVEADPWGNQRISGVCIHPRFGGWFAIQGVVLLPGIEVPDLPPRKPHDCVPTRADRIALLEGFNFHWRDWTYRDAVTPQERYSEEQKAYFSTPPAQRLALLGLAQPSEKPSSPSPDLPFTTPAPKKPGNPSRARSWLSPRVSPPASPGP
Briefly: Differential scanning fluorimetry (DSF), stabilization by cobalamins. The class given is binding. As to conditions: DSF; for ΔTm max: Tm at 50 μM ligand minus Tm at 0 μM ligand. The protocol: (§1) DSF was performed and analyzed as described in Niesen et al., with minor modifications. Purified MMACHC proteins were diluted to 0.1 mg/ml (3 μM) in buffer (10 mM HEPES pH 7.5, 0.5 M NaCl, 5% glycerol) with 1:1000 Sypro Orange (Invitrogen) and run in triplicate. The proteins were heated from 5 to 75 °C with a ramp rate of 1 °C/min in a thermocycler (Bio-rad C1000 Thermocycler, CFX96 Real-time system). All graphs were normalized so that minimum fluorescence was set to 0 and maximum fluorescence set to 1. […] Final graphs and AC50’s were generated using Kadeidagraph 4.0 software (Synergy Software, Reading, PA). AC50’s were determined by fitting the ΔTm vs. ligand concentration curves to the equation ΔTm = ΔTm max[S]/(AC50 + [S]) where ΔTm is the change in melting temperature (Tm[protein + ligand] − Tm[protein]), ΔTm max is the maximal change in Tm at saturating (50 μM) ligand concentration and [S] is the ligand concentration.
(§2) Wild-type (MMACHC-wt) and mutant (MMACHC-R161Q) MMACHC were expressed and purified to >95% purity, with His-tag removed, as judged by SDS–PAGE (Fig. 2A). In order to investigate the thermostability of MMACHC we used DSF, a method that measures protein stability and ligand-induced changes in stability [[20,21]]. DSF uses an environmentally sensitive dye, such as Sypro orange, to monitor protein-unfolding caused by heat denaturation. As the protein unfolds, the dye, which has a higher fluorescence quantum yield in nonpolar environments than in aqueous media, binds to hydrophobic regions of the protein, causing a large increase in fluorescence [[22,23]]. Protein stability is expressed as the melting point of the protein (Tm), that is, the transition midpoint of the fluorescence curve, corresponding to the temperature at which half of the protein molecules are folded and half are unfolded. […] Even lower was the stability of MMACHC-R161Q (Tm = 37.1 ± 0.7 °C) (Fig. 2B). The difference in Tm was small but nonetheless significant (p < 0.01). A second difference between the wild-type and mutant proteins was the shape of the unfolding curves, with the unfolding of the mutant protein showing high cooperativity indicating a two-state unfolding mechanism while the unfolding of the wild-type protein stretched over a larger temperature range and comprised two phases (Fig. 2B; also Fig. 3A at 0 μM OHCbl).
On the technique in general: In DSF a fluorescence change marks the thermal transition of the protein.

Data set [2] has as its target T2, MMACHC-wt (Homo sapiens, UniProt Q9Y4U1).
T2 construct: His-tag (N, cleaved yes); made in house; host or cells: E. coli BL21 DE3
T2 sequence (Q9Y4U1 1-282): T1 sequence (Q9Y4U1 1-282 R161Q) with Q161R
The description is as above. Format: binding. As to conditions: for ΔTm max: Tm at 50 μM ligand minus Tm at 0 μM ligand. On the procedure:
as §1, §2

For data set [3], the target named is T3, GST-MMACHC-wt (Homo sapiens, UniProt Q9Y4U1).
T3 construct: made in house
T3 sequence (Q9Y4U1 1-282): T1 sequence (Q9Y4U1 1-282 R161Q) with Q161R
Briefly: UV-visible absorption spectra, base-on/base-off binding. To be noted: 5 μM cobalamin, 50 μM protein, pH 7.0; for α/β-Peak: nm; for γ-Peak: wavelength. The protocol:
(§3) To determine base-on or base-off binding, 5 μM of the appropriate cobalamin or cobinamde in buffer (100 mM Tris, pH 7.0), was incubated in the dark with 400 μl total of 50 μM MMACHC protein (wild-type or R161Q), prepared in the same buffer, or alone, for 5 min at room temperature. In order to retain the high amounts of protein necessary for these experiments, the His-tag (wt and R161Q) or GST-tag (wt protein) was left on. Absorption spectrum measurements were carried out using a MOS-250 spectrometer and recorded using Bio-Kine 32 v4.20 software.
(§4) In order to determine whether the R161Q mutation interferes with the ability of MMACHC to support this transition, we examined the UV–visible absorption spectra for the proteins bound to AdoCbl, as an example of an alkylcobalamin, as well as for the proteins bound to CNCbl and OHCbl. Each cobalamin was added at a concentration of […] (Fig. 5). To determine whether the cobalamin was base-on or base-off, in the case of CNCbl both base-on and base-off spectra were determined for the free vitamin, as previously reported [[12,14]]. […] Confirming our earlier data, GST-tagged MMACHC-wt bound CNCbl in the base-off state (Table 2). […] Both MMACHC-wt and MMACHC-R161Q bound AdoCbl in the base-off state (Fig. 5; Table 2). […] Finally, neither MMACHC-wt nor MMACHC-R161Q modified OHCbl binding, which retained the base-on profile regardless of the MMACHC species present (Fig. 5; Table 2).

In data set [4] the target is T4, His-MMACHC-wt (Homo sapiens, UniProt Q9Y4U1).
T4 construct: made in house; host or cells: E. coli BL21 DE3
T4 sequence (Q9Y4U1 1-282): T1 sequence (Q9Y4U1 1-282 R161Q) with Q161R
Described as above. As to conditions: 5 μM cobalamin, 50 μM protein, pH 7.0; for α/β-Peak: nm; for γ-Peak: wavelength. On the procedure:
as §3, §4

Data set [5] has as its target T5, His-MMACHC-R161Q (Homo sapiens, UniProt Q9Y4U1, R161Q).
T5 construct: made in house; host or cells: E. coli BL21 DE3
T5 sequence (Q9Y4U1 1-282 R161Q): T1 sequence (Q9Y4U1 1-282 R161Q)
The data set is described as above. As to conditions: 5 μM cobalamin, 50 μM protein, pH 7.0; for α/β-Peak: nm; for γ-Peak: wavelength. The protocol:
[…] In order to retain the high amounts of protein necessary for these experiments, the His-tag (wt and R161Q) or GST-tag (wt protein) was left on. Absorption spectrum measurements were carried out using a MOS-250 spectrometer and recorded using Bio-Kine 32 v4.20 software.
as §4

Data set [6] is described as follows: UV-visible absorption spectra of free cobalamin. To be noted: for α/β-Peak: nm; for γ-Peak: wavelength. Format: physicochemical. On the procedure: as §3, §4
The target of data set [7] is T2, MMACHC-wt. The arrangement: method as in PMID 19700356. To be noted: published Kd; unit printed in b1 only; cited from earlier work.
The target in data set [8] is T1, MMACHC-R161Q. The arrangement: method as in PMID 19700356. As to conditions: cited from earlier work; for cobalamin binding: recombinant protein, in words.
The test system of data set [9] is MMACHC-G147D. The arrangement: method as in PMID 19700356. To be noted: recombinant protein, in words; cited from earlier work.
For data set [10], the target named is T3, GST-MMACHC-wt. The arrangement: method as in PMID 19700356. As to conditions: earlier demonstration; cited from earlier work.
For data set [11], the target named is T5, His-MMACHC-R161Q. Briefly: UV-visible absorption spectra, base-on/base-off binding. As to conditions: 20 μM CNCbl, pH 7.0.
Setting [12] is: half-maximal effective ligand concentration for stabilization, 3 μM protein, fit of ΔTm vs ligand concentration.

For the compound `C/C1=C2/[N-][C@H]([C@H](CC(N)=O)[C@@]2(C)CCC(=O)NC[C@@H](C)OP(=O)([O-])O[C@H]2[C@@H](O)[C@@H](n3cnc4cc(C)c(C)cc43)O[C@@H]2CO)[C@]2(C)N=C(/C(C)=C3N=C(/C=C4N=C1[C@@H](CCC(N)=O)C\4(C)C)[C@@H](CCC(N)=O)[C@]\3(C)CC(N)=O)[C@@H](CCC(N)=O)[C@]2(C)CC(N)=O.[Co+3].[OH-]` [OHCbl, Hydroxocobalamin], the ΔTm max in data set [1] was 4 °C and 3.7 ± 0.1 °C; in [2], 8 °C and 7.9 ± 0.6 °C. Moreover, the AC50 in [1] (setting [12]) was 7 µM and 6.6 µM; in data set [2] (setting [12]), 3 µM. Besides, the Base-on/off entry in [3] is “On”; in data set [4], “base-on and On”; in data set [5], “base-on and On”. In addition, the α/β-Peak was 522 nm in [3], 532 nm in data set [4], 535 nm in [5] and 525 nm in data set [6] (base-on). Moreover, the γ-Peak in data set [3] stood at 355; in data set [4], 356; in data set [5], 354; in data set [6] (base-on), 350 nm. In addition, the dissociation constant Kd in [7] was 6 µM and 5.7 µM. Besides, the cobalamin binding entry in [8] is on record as “wild-type affinity”; in [9], “unable to bind”.
As to Cyanocobalamin [CNCbl], the ΔTm max in data set [1] was 1 °C and 1.1 ± 0.6 °C; in [2], 3.4 ± 0.6 °C. The Base-on/off entry in data set [3] was “base-off and Off”; in [4], “Off”; in [5], “shifted incompletely towards full base-off binding; also recorded: On/Off”; in [11], “Off”. The α/β-Peak is reported as 530 nm in [3]; 531 nm in [4]; 540 nm in data set [5]; 529 nm in [6] (base-off); 551 nm in data set [6] (base-on); 531 nm in data set [11] (nm). The γ-Peak stood at 357 in data set [3]; 358 in data set [4]; 359 in data set [5]; 355 nm in [6] (base-off); 360 nm in data set [6] (base-on); 359 in data set [11] (wavelength). Moreover, in [10], the “binding conformation (base-on/off)” value was “base-off”. Also, the dissociation constant (Kd) in data set [8] (published Kd, unit printed in b35 only) is 20 µM. Also, the cobalamin binding entry in data set [8] was “poorly; also recorded: impaired”; in data set [9], “unable to bind”.

One may read the AC50 as the concentration at which the activity in the assay is half-maximal. In general, Kd refers to the concentration at which binding is half-saturated.
